Assay [1] concerns A549. Briefly: Cytotoxicity against human A549 cells after 72 hrs by MTT assay. Format: functional, cell-based. Background: Formazan colour is commonly taken as a measure of viable cells.
Assay [2] has as its system B16. The assay can be described thus: Cytotoxicity against mouse B16 cells after 72 hrs by MTT assay. Format: functional, cell-based.
Setting [3] is: Homo sapiens, A549, 72 h, read-out: IC50.
The mark [4] stands for this setting: Mus musculus, B16, 72 h, read-out: IC50.

Each structure is given as a SMILES string.

A word on the IC50: it is the concentration that gives 50% inhibition. As for `CC1(C)OC2=C(C(=O)c3ccccc32)[C@H]2C3=Cc4cc(Cl)ccc4O[C@@]3(C)CC[C@H]21`, the IC50 is 26.3 µM in assay [1] (setting [3]) and “Not Active” in assay [2] (b16).

For the compound `CC1(C)OC2=C(C(=O)CCC2)[C@H]2C3=Cc4ccccc4O[C@@]3(C)CC[C@H]21` (relative stereo), the IC50 in assay [1] (setting [3]) is 20.8 µM; in assay [2] (setting [4]) it was 12.8 µM.

For `CC1(C)CC(=O)C2=C(C1)OC(C)(C)[C@@H]1CC[C@]3(C)Oc4ccccc4C=C3[C@H]21` (relative stereo), the concentration for half-maximal inhibition (IC50) stood at 8.64 µM in assay [1] (setting [3]) and 10.2 µM in assay [2] (setting [4]).

Turning to `Cn1c2c(c(=O)n(C)c1=O)[C@H]1C3=Cc4ccccc4O[C@@]3(C)CC[C@H]1C(C)(C)O2` (relative stereo), the concentration for half-maximal inhibition (IC50) in assay [1] (setting [3]) turned out to be 3.8 µM; in assay [2] (setting [4]), 8.47 µM.

For the compound `CC1(C)Oc2c(c(=O)oc3ccccc23)[C@H]2C3=Cc4ccccc4O[C@@]3(C)CC[C@H]21` (relative stereo), the values for the IC50 in assay [1] (setting [3]) and in assay [2] (setting [4]) were 9.58 µM and 35.7 µM, respectively.

On to `CC1(C)OC2=C(C(=O)CCC2)[C@H]2C3=Cc4cc(Cl)ccc4O[C@@]3(C)CC[C@H]21` (relative stereo), for which the IC50 in assay [1] (setting [3]) was determined as 4.01 µM; in assay [2] (setting [4]) it was 2 µM.

`Cn1c2c(c(=O)n(C)c1=O)[C@H]1C3=Cc4cc(Cl)ccc4O[C@@]3(C)CC[C@H]1C(C)(C)O2` (relative stereo): the IC50 result was “Not Active” in assay [1] (a549) and 7.69 µM in assay [2] (setting [4]).

Take `CC1(C)Oc2c(c(=O)oc3ccccc23)[C@H]2C3=Cc4cc(Cl)ccc4O[C@@]3(C)CC[C@H]21` (relative stereo): the values for the IC50 in assay [1] (setting [3]) and in assay [2] (setting [4]) were 0.26 µM and 20.4 µM, respectively.

In the case of `CC1(C)OC2=C(C(=O)CCC2)[C@H]2C3=Cc4cc(Br)ccc4O[C@@]3(C)CC[C@H]21` (relative stereo), the IC50 in assay [1] (setting [3]) turned out to be 19.7 µM; in assay [2] (setting [4]) it was 16.5 µM.

For the compound `CC1(C)CC(=O)C2=C(C1)OC(C)(C)[C@@H]1CC[C@]3(C)Oc4ccc(Br)cc4C=C3[C@H]21` (relative stereo), the figures for the IC50 in assay [1] (setting [3]) and in assay [2] (setting [4]) were 6.13 µM and 12.5 µM, respectively.

Regarding `COc1cccc2c1C(=O)c1c(O)c3c(c(O)c1C2=O)C[C@@](O)(C(=O)CO)C[C@@H]3O[C@H]1C[C@H](N)[C@H](O)[C@H](C)O1` [DOXORUBICIN], the IC50 in assay [1] (setting [3]) and in assay [2] (setting [4]) was less than 0.1 µM throughout.

(Values after ChEMBL document CHEMBL1955855, “A domino Knoevenagel hetero-Diels-Alder reaction for the synthesis of polycyclic chromene derivatives and evaluation of their cytotoxicity” (Bioorg Med Chem Lett, 2012).)
